Reference: the supplement of paper PMC10307832

Legend:
Test in all cases: relative viability (nuclei count vs DMSO), 5 days (fraction); higher = more cells survive
[1] = compound: C[C@]12O[C@H](C[C@]1(O)CO)n1c3ccccc3c3c4c(c5c6ccccc6n2c5c31)CNC4=O [Lestaurtinib] + CC(=O)c1c(C)c2cnc(Nc3ccc(N4CCNCC4)cn3)nc2n(C2CCCC2)c1=O [Palbociclib] (partner 0.5 µM)
Outline: (§1)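 Lung cancer cell lines in 1536-well plates got either a single drug or a fixed anchor-drug dose together with five library-drug doses (not always all listed) in √10 steps, by pin tool, on the day after seeding. Nuclei were counted after 5 days, and relative viability is the treated-to-vehicle ratio of nuclei counts. Values are medians of duplicate plates.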

[2] = compound: C1=CC(=CC=C1C2=CC(=C(S2)NC(=O)N)C(=O)N)F [TPCA-1] + CC1(C)CCC(c2ccc(Cl)cc2)=C(CN2CCN(c3ccc(C(=O)NS(=O)(=O)c4ccc(N[C@H](CCN5CCOCC5)CSc5ccccc5)c(S(=O)(=O)C(F)(F)F)c4)cc3)CC2)C1 [Navitoclax] (partner 0.5 µM)
Outline: as §1

[3] = compound: C[C@]12O[C@H](C[C@]1(O)CO)n1c3ccccc3c3c4c(c5c6ccccc6n2c5c31)CNC4=O [Lestaurtinib] + CS(=O)(=O)CCNCc1ccc(-c2ccc3ncnc(Nc4ccc(OCc5cccc(F)c5)c(Cl)c4)c3c2)o1 [Lapatinib] (partner 2 µM)
Outline: as §1

[4] = compound: C[C@]12O[C@H](C[C@]1(O)CO)n1c3ccccc3c3c4c(c5c6ccccc6n2c5c31)CNC4=O [Lestaurtinib] + CCNC(=O)c1noc(-c2cc(C(C)C)c(O)cc2O)c1-c1ccc(CN2CCOCC2)cc1 [Luminespib] (partner 0.01 µM)
Outline: as §1

Cell Line	relative viability ([1]; first compound 0.005 µM)	relative viability ([1]; first compound 0.01581 µM)	relative viability ([1]; first compound 0.05 µM)	relative viability ([1]; first compound 0.1581 µM)	relative viability ([1]; first compound 0.5 µM)	relative viability ([2]; first compound 0.04 µM)	relative viability ([2]; first compound 0.1265 µM)	relative viability ([2]; first compound 0.4 µM)	relative viability ([2]; first compound 1.265 µM)	relative viability ([2]; first compound 4 µM)	relative viability ([3]; first compound 0.005 µM)	relative viability ([3]; first compound 0.01581 µM)	relative viability ([3]; first compound 0.05 µM)	relative viability ([3]; first compound 0.1581 µM)	relative viability ([3]; first compound 0.5 µM)	relative viability ([4]; first compound 0.005 µM)	relative viability ([4]; first compound 0.01581 µM)	relative viability ([4]; first compound 0.05 µM)	relative viability ([4]; first compound 0.1581 µM)	relative viability ([4]; first compound 0.5 µM)
201T	0.398	0.45	0.364	0.405	0.399	1.2	1.17	1.19	1.2	1.25	1.05	1.08	1.04	1.2	0.961	1.16	1.07	1.14	1.09	0.357
A549						1.29	1.2	1.17	1.29	0.777	1.1	0.972	0.447	0.132	0.0697					
A-427	0.506	0.554	0.521	0.444	0.207	0.945	0.898	0.997	0.899	0.93	1.03	1.06	1	0.711	0.225	1.03	0.797	0.649	0.298	0.185
ABC-1	0.618	0.625	0.647	0.619	0.42						1.27	1.32	1.06	1.01	1.15		0.323	0.445	0.331	0.178
BEN	0.483	0.537	0.467	0.432	0.399	0.0874	0.0533	0.0644	0.0802	0.0674	0.743	0.959	0.586	0.408	0.255	0.249	0.298	0.278	0.326	0.213
CAL-12T	0.365	0.526	0.409	0.302	0.183	1.1	1.15	1.17	1.16	1.11	0.671	0.649	0.537	0.384	0.246	0.484	0.52	0.556	0.256	0.06
COR-L23	0.337	0.319	0.223	0.248	0.11	1.28	0.953	1.03	1.03	0.733	1.08	1.24		0.623	0.271	0.558	0.756	0.226	0.288	0.164
COR-L 105	0.434	0.425	0.376	0.419	0.348	0.964	0.642	0.962	0.636	0.64	0.358	0.389	0.289	0.304	0.256	0.843	0.826	0.532	0.67	0.263
Calu-6						0.893	0.795	0.888	0.726	0.394	1.09	1.2	0.557	0.499	0.208					
ChaGo-K-1	0.977	0.89	0.77	0.779	0.671	0.959	0.927	1.13	0.98	0.406						0.62	0.706	0.698	0.479	0.223
EBC-1						0.355	0.397	0.564	0.351	0.293	0.164	0.236	0.251	0.234	0.185					
EKVX	0.346		0.355	0.421	0.426	0.956	0.818	0.913	0.793	0.836	0.192	0.221	0.195	0.194	0.198	0.951	0.876	0.999	0.821	0.541
EMC-BAC-2	0.505	0.51	0.456	0.353	0.305	1.21	1.19	1.14	1.13	1.01	0.921	0.968	0.865	0.669	0.309	1.15	1.33	0.806	0.434	0.323
EPLC-272H	0.359	0.317	0.269	0.3	0.353	1.28	0.969	0.934	1.01	0.821	0.87	1.06	0.616	0.513	0.5	0.196	0.235	0.184	0.241	0.133
H3255	0.301	0.349	0.324	0.337	0.249	0.536	0.507	0.473	0.396	0.242	0.2	0.175	0.243	0.18	0.112	0.766	0.94	0.835	0.716	0.486
HARA	0.233	0.32	0.278	0.234	0.243	1.13	1.08	1.16	1.08	1.08	0.795	0.748	0.738	0.68	0.369	0.682	0.847	0.681	0.872	0.0984
HCC-15	0.751	0.779	0.68	0.687	0.187	0.825	0.64	0.682	0.686	0.519	0.931	1.05	0.8	0.545	0.135	0.365	0.552	0.341	0.294	0.157
